“Also recorded” adds a separate entry of the source.
How the values were obtained:
recombinant human IDE [1] = target: T1, recombinant human IDE (Homo sapiens, UniProt P14735); experiment: IDE activity assay, degradation of fluorogenic peptide substrate FRET1; format: biochemical; settings: for activity against IDE in words: FRET1 assay; for Ki: n = 3
[2] = system: neprilysin (NEP), endothelin-converting enzyme-1 (ECE1), ACE, and MMP-2 and -7; experiment: Zinc-metalloprotease selectivity panel versus IDE, common substrate OmniMMP; format: biochemical
recombinant human IDE [3] = target: T1, recombinant human IDE; settings: cited from earlier work
recombinant human IDE [4] = target: T1, recombinant human IDE; settings: cited from earlier work; remark: listed apart in the source
recombinant human IDE [5] = target: T1, recombinant human IDE; settings: cited from earlier work; remark: listed apart in the source
MMP7 = target: T2, MMP7 (Homo sapiens, UniProt P09237); experiment: Zinc-metalloprotease selectivity dose-response, common substrate OmniMMP: MMP7; format: biochemical; settings: Figure 3 dose-response curves
T2 sequence (P09237 95-267): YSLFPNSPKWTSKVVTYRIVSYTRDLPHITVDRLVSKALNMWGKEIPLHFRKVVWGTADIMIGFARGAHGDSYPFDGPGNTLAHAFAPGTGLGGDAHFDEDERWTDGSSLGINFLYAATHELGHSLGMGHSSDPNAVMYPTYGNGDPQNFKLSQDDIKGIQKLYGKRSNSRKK

recombinant human IDE [6] = target: T1, recombinant human IDE; experiment: IDE activity assay, insulin degradation; format: biochemical
recombinant human IDE [7] = target: T1, recombinant human IDE; experiment: IDE activity assay, Aß degradation; format: biochemical

T1 sequence (P14735 whole entry): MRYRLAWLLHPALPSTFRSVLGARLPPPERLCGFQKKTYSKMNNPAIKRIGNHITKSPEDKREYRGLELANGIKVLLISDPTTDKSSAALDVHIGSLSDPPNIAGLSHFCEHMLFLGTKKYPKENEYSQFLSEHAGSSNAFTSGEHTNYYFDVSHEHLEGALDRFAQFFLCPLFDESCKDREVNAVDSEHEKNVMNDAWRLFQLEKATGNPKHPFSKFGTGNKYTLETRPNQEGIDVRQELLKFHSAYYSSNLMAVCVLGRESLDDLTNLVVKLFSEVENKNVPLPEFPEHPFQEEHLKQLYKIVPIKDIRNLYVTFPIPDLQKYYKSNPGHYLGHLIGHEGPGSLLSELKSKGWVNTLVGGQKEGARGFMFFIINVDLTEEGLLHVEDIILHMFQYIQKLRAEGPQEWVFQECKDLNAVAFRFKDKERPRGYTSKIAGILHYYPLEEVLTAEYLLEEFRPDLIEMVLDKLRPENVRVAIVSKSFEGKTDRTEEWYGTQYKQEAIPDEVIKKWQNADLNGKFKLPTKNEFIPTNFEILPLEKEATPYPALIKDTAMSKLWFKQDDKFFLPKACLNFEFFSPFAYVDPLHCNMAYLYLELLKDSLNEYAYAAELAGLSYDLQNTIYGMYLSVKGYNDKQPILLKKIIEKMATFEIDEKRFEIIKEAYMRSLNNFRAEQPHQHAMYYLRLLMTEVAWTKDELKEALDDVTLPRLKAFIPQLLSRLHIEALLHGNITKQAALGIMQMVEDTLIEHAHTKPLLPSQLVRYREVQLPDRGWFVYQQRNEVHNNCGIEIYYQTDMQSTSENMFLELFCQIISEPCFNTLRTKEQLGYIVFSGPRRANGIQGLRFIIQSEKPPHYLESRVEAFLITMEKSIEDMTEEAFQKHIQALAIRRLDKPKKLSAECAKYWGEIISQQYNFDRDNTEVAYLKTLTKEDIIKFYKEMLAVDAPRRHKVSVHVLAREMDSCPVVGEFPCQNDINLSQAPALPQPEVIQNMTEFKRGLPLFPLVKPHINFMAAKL

In the case of N=C(N)NCCC[C@H](NC(=O)C(CC(=O)NO)Cc1ccc2ccccc2c1)C(N)=O (stereo in doubt) [inhibitor 9b, (R)-N^1-((S)-1-amino-5-guanidino-1-oxopentan-2-yl)-N^4-hydroxy-2-(naphthalen-2-ylmethyl)succinamide], the “activity against IDE in words” value (recombinant human IDE [1]) is reported as “inactive”.
In the case of C=CCOC(=O)[C@H](CCCNC(=N)N)NC(=O)C(CC(=O)NO)Cc1ccc2ccccc2c1 (stereo in doubt) [inhibitor 14a, (S)-Allyl5-guanidino-2-((S)-4-(hydroxyamino)-2-(naphthalen-2-ylmethyl)-4-oxobutanamido)pentanoate], the “fold more potent than the parent amide, 9a” value (recombinant human IDE [1]; ki, FRET1) is reported as ~ 13 fold and the “fold more potent against IDE vis-à-vis the other proteases tested” value ([2]; OmniMMP substrate) is reported as > 100 fold.
For Nc1ncnc2c1ncn2[C@@H]1O[C@H](COP(=O)(O)OP(=O)(O)OP(=O)(O)O)[C@@H](O)[C@H]1O [ATP], the “effect on degradation of insulin by IDE” value (recombinant human IDE [3]) is listed as “inhibits”, the “effect on degradation of FRET1 by IDE” value (recombinant human IDE [4]) is listed as “profoundly activates” and the “effect on degradation of Aß by IDE” value (recombinant human IDE [5]) is listed as “inhibits”.
For N=C(N)NCCC[C@H](NC(=O)[C@@H](CC(=O)NO)Cc1ccc2ccccc2c1)C(=O)N[C@@H](Cc1c[nH]c2ccccc12)C(=O)N[C@@H](CCC(=O)O)C(N)=O [inhibitor 1a], the “MMP7 inhibition in words” value (MMP7) was “rather potently inhibited”.
For N=C(N)NCCC[C@@H](NC(=O)[C@@H](Cc1c[nH]c2ccccc12)NC(=O)[C@H](N)CCC(=O)O)C(=O)N[C@@H](CC(=O)NO)Cc1ccc2ccccc2c1 [inhibitor 15, Glu-Trp-Arg-2Nap-Hx], the “fold higher ki^app for insulin degradation relative to FRET1” value (recombinant human IDE [6]; derived from Table 5) was > 60 fold.
In the case of CC(=O)N[C@H](CCC(=O)NCCNc1cccc2c(S(=O)(=O)O)cccc12)C(=O)N[C@H](Cc1ccc(O)cc1)C(=O)N[C@H](Cc1ccc(C(=O)c2ccccc2)cc1)C(=O)N[C@@H](CC(=O)NO)Cc1ccc2ccccc2c1 [inhibitor 17, Ac-Glu(EDANS)-Tyr-Bpa-2Nap-Hx], the “fold lower ki^app for Aß degradation relative to insulin degradation” value (recombinant human IDE [7]; derived from Table 5) is reported as ~ 300 fold and the “fold lower ki^app for Aß degradation relative to ki for FRET1 degradation” value (recombinant human IDE [7]; derived from Table 5) is reported as > 30 fold.
In the case of “(2R,3S)-N^1-((S)-1-Amino-5-guanidino-1-oxopentan-2-yl)-N^4,3-dihydroxy-2-(naphthalen-2-ylmethyl)succinamide [inhibitor 12a]”, the “activity against IDE in words” value (recombinant human IDE [1]) is reported as “abolish activity; also recorded: substantial decreases in potency”.
For “(2S,3R)-N^1-((S)-1-amino-5-guanidino-1-oxopentan-2-yl)-N^4,3-dihydroxy-2-(naphthalen-2-ylmethyl)succinamide [inhibitor 12b]”, the “activity against IDE in words” value (recombinant human IDE [1]) was “abolish activity; also recorded: substantial decreases in potency”.
“(S)-5-Amino-4-((S)-2-((S)-5-guanidino-2-((2S,3R)-3-hydroxy-4-(hydroxyamino)-2-(naphthalen-2-ylmethyl)-4-oxobutanamido)pentanamido)-3-(1H-indol-2-yl)propanamido)-5-oxopentanoic acid [inhibitor 8b]” showed a Ki (recombinant human IDE [1]; read-out: ki (nM) (FRET1), Table 1, FRET1 5 μM, 22 °C) of 103 ± 6.9 nM, a Ki (recombinant human IDE [1]; read-out: ki, nM (FRET1), Table 2, truncation, FRET1 5 μM) of 103 ± 7 nM and a Ki (recombinant human IDE [1]; read-out: ki^app, nM FRET1, Table 5, substrate FRET1 5 μM) of 103 ± 7 nM. The Ki (recombinant human IDE [7]; read-out: ki^app, nM FAßB, Table 5, substrate Aß 200 nM, n = 3) was 927 ± 120 nM, the Ki (recombinant human IDE [6]; read-out: ki^app, nM Insulin, Table 5, substrate insulin 2 nM, n = 3) was 1890 ± 410 nM and the “inhibition of the other proteases tested, in words” value ([2]; concentrations up to 10 μM) was “no or only partial inhibition”.
